Several values for one entry are separate records, joined by “and”; a condition that tells them apart may be missing. Equal values may be shown once. Read-outs that look alike come from different tables or passages of the source.
How the values were obtained:
DHFR from E. coli [1] = target: T1, DHFR from E. coli (Escherichia coli, UniProt P0ABQ4); assay: Inhibition of DHFR-catalysed reduction of H2F to H4F, spectrophotometric at 340 nm, Dixon plot; format: biochemical; details: pH 7.3, 30 °C, saturating NADPH, H2F 1.5-10 µM, Hepes/methanol
T1 construct: made in house
Description: The phosphane gold(I) compounds were used to prepare buffered stock solutions at pH = 7.3 at 30 °C for the inhibition tests of DHFR from E coli. In Table 1, the list of the gold(I) compounds used for the tests and the corresponding inhibition constants are reported.
The inhibition action of the gold phosphane compounds was tested in regards to the reduction of H2F to H4F reaction, catalyzed by DHFR [2]. The inhibition tests were led by analyzing the reciprocal reaction rate upon the addition of Hepes/methanol solutions of gold compounds in different set of tests in the saturated concentration of NADPH. The tests were repeated with different amounts of dihydrofolate (DHF) (1.5 ÷ 10 µM).
The standard deviations were calculated for a minimum of three determinations. (1) 1/ν=Km/VmaxKi[S]∗[I]+1/Vmax(1+Km/[S])
The activity of the DHFR was followed by recording the absorbance with a Shimadzu UV-2450 (UV-Vis spectrophotometer). The enzyme assays were made in a quartz cuvette by using similar experimental conditions: DHFR 3-5 nM, NADPH 60–80 μM, and H2F 1.5, 4, and 10 μM. The procedure consisted in the preparation of the following mixtures: 800–971 µL of 50 mM Hepes buffer at pH = 7.3, 20 μL of NADPH, 10 µl of DHFR, and increasing quantities of gold(I) compounds stock solutions in order to achieve higher accuracy in the measurement of the inhibitory effect. After storing the mixture for 5 min at 30 °C, 4–33 µL of H2F was added. The decreasing absorbance at 340 nm, due to the oxidation of NADPH to NADP^+, was detected after adding the H2F, and expressed in U mL^−1 using the equation: U·mL^−1 = Δabs/Δt/11.8 × dilution factor, where 11.8 is the mMolar extinction coefficient when NADPH and H2F are simultaneously present in solution. The Ki values were calculated with the Dixon plot from the second plot obtained computing the slope values against the reciprocal of the H2F concentrations.

DHFR from E. coli [2] = target: T1, DHFR from E. coli; assay: Fluorimetric binding assay, quenching of DHFR tryptophan emission (λexc = 280 nm); details: for TΔS°: from van't Hoff analysis; for ΔH° / ΔS°: van't Hoff equation from Kd at 25, 10 and −4 °C; for ΔG°: standard free energy equation from ΔH° and TΔS°
Description: The Hepes/methanol solutions of the gold(I) compounds were used for the fluorimetric assays (see materials and methods section) regarding DHFR from E. coli. The emission’s maximum of DHFR was detected at 344 nm upon excitation at 280 nm; by adding additional amounts of the gold complex in Hepes/methanol solutions (ranging among 4 ÷ 50 µM), the quenching of this emission intensity was observed. In Figure 3, spectra showing the effect of ^4L3AuCl on DHFR emission are reported. It is possible to observe the quenching of the Tryptophan’s emission and the corresponding increase of the intrinsic phosphorescence of the gold compound.
(§1) The fluorimetric analysis was performed using a 1 mL quartz cuvette and a Perkin–Elmer Fluorescence Spectrometer LS 55. For all the analysis we used 5–12 µM solutions of DHFR and increasing concentrations of gold(I) compounds in the 4–60 µM range. For some experiments, saturating concentrations of NADPH (50 µM) were added to the initial solutions of DHFR to observe the affinity variation of the complexes with respect to the DHFR.
All the spectra were recorded in the range between 250 and 600 nm using an excitation wavelength characteristic of the Tryptophan, equal to 280 nm. For most of the experiments the temperature was kept constant at 25 °C; furthermore, to analyze the thermodynamic aspects of the reactions (via the van’t Hoff equation), quenching spectra of DHFR in presence of the gold(I) complexes were recorded at −4 and 10 °C as well.
(§2) The fluorimetric data were analyzed using the binding isotherm (Equation (2)), where [Q] is the concentration of the added quenching ligand, F is the measured fluorescence, F0 is the starting fluorescence, Fc is the fluorescence of the fully complexed protein, Kd is the dissociation constant, and n is the Hill coefficient. Indeed, n is a phenomenological parameter, an interaction coefficient, such as when n = 1 the equation describes a complex formation with one site of interaction, when n = 2 binding occurs with a dimer, when 1 < n < 2 a cooperative interaction occurs. (2) F0−F/F−Fc=[Q]^n/(Kd+[Q])^n

DHFR from E. coli [3] = target: T1, DHFR from E. coli; design: method as in PMID 25567238; details: values obtained in a previous work, cited from earlier work
DHFR/NADPH = target: T2, DHFR/NADPH (Escherichia coli, UniProt P0ABQ4); assay: Fluorimetric binding assay on DHFR in presence of saturating NADPH; details: 25 °C, saturating NADPH (50 µM); read-out: Kd ± s.d. (25 °C) in presence of saturating NADPH
T2 construct: made in house
Text: After these preliminary emissive property characterizations, the fluorimetric studies were led in the presence of the enzyme DHFR and the cofactor NADPH [26]. […] Additionally, NADPH is fluorescent, with an absorption maximum at about 340 nm and an emission maximum at about 450 nm. […] Moreover, because NADPH has a maximum of absorption at 340 nm, significant energy transfer from the excited tryptophan of the enzyme to bound NADPH occurs; as a consequence, a new emission at 420–450 nm is then observed. Figure 8 reports the progressive quenching of the DHFR and NADPH emissions by stepwise adding of solution of ^4L3AuCl. Moreover, a slight shift of the typical emission at […] (λexc = 280 nm) is observed.
as §1, §2

[4] = UV-visible spectroscopy stability test in Hepes/methanol solution; format: physicochemical; details: 11.85 µM, Hepes/methanol 80:20, 30 °C, one hour, every 3 minutes
Description: The preparation of the gold compounds was performed according to methods already published and was based on the substitution of the labile ligand from the gold precursor [AuCl(Me2S)], by mean of a more coordinative ligand, such as the PPh3 or its modified analogs, ^4L and ^2L. Mole ratio with an excess of the phosphane ligand was pursued with the aim to enhance the reaction yield for tris-phosphane compounds. The solids obtained by crystallization were characterized by elemental analysis, ^1H and ^31P NMR, IR, and ESI Mass spectrometry. The stability of the stock solutions upon dilution was checked by recording UV-visible spectra (see Supplementary Material, Figures S1 and S2). The reactants for the ester reaction and ^4L or ^2L ligands were bought from Aldrich and used without any purification. Methanol or methylene chloride solvents were degassed and dried over molecular sieves.
UV-visible spectroscopy stability tests of compounds 4L3AuCl, 4L2AuCl, and 2L2AuCl on […]
Acquisitions of the absorptions in the range of 200–700 nm of the tested solutions were led for an hour lapse every 3 minutes in 11.85 µM concentration of 4L3AuCL (figure S1), 4L2AuCl, and 2L2AuCl (figure S2) at 30 °C. The stability was tested in Hepes/methanol 80:20, which are the same conditions used for the inhibition tests.
Figure S1. UV-visible spectra for 11.85 µM of 4L3AuCl in hepes/methanol
(1 picture or pasted object on this page, not shown here)

DHFR = system: DHFR; design: method as in PMID 17920, PMID 12359872; details: cited from earlier work
[5] = 25 °C, without NADPH, Hepes/methanol, read-out: Kd ± s.d., T = 25 °C
[6] = −4 °C, without NADPH, read-out: Kd ± s.d. (−4 °C) (converted)
[7] = 10 °C, without NADPH, read-out: Kd ± s.d. (10 °C) (converted)
[8] = 25 °C, when not specified n = 1

| Compound | Ki (DHFR from E. coli [1]) [µM] | Kd (DHFR from E. coli [2]; [5]) [µM] | TΔS° (DHFR from E. coli [2]) | ΔH° (DHFR from E. coli [2]) | ΔS° (DHFR from E. coli [2]) | Kd (DHFR from E. coli [2]; [6]) [µM] | Ki (DHFR from E. coli [3]; read-out: Ki) | Kd (DHFR from E. coli [2]; [7]) [µM] | ΔG° (DHFR from E. coli [2]) | Kd (DHFR/NADPH) [µM] | further results |
| --- | --- | --- | --- | --- | --- | --- | --- | --- | --- | --- | --- |
| O=C(O)c1ccc(P(c2ccccc2)c2ccccc2)cc1.O=C(O)c1ccc(P(c2ccccc2)c2ccccc2)cc1.O=C(O)c1ccc(P(c2ccccc2)c2ccccc2)cc1.O=S(=O)([O][Au])C(F)(F)F [^4L3AuTfl, [tris(4-benzoate-diphenylphosphanyl)-gold(I)triflate]] | 6.33 ± 0.7 | 21.4 ± 3.85 | 1.17 ± 0.9 kcal/mol | -5.32 ± 3.2 kcal/mol | 3.92 ± 8.8 cal/mol K | 8.08 | – | – | – | – | – |
| O=C(O)c1ccccc1P(c1ccccc1)c1ccccc1.[Cl][Au] [^2LAuCl, (2COOHPh-Ph2P)AuCl] | – | – | – | – | – | – | 1.1 ± 0.3 µM | – | – | – | – |
| O=C(O)c1ccc(P(c2ccccc2)c2ccccc2)cc1.[Cl][Au] [^4LAuCl, (4COOHPh-Ph2P)AuCl] | – | – | – | – | – | – | 2.25 ± 0.62 µM | – | – | – | – |
| [Cl][Au]([PH](c1ccccc1)(c1ccccc1)c1ccccc1)[PH](c1ccccc1)(c1ccccc1)c1ccccc1 [L2AuCl, (PPh3)2AuCl] | 0.53 ± 0.03 | 5.99 ± 0.4 | 2.5 n. d. * kcal/mol | −4.87 n. d.* kcal/mol | 8.42 n. d. * cal/mol K | 3.83 | – | 2.47 | −7.37 n. d. * kcal/mol | 2.22 ± 0.25 | Kd (DHFR from E. coli [2]; conditions not stated in the conclusions, read-out: thermodynamic constant for the dissociation of the adduct [DHFR:(PPh3)2AuCl]): ~2 µM |
| O=C(O)c1ccc(P(c2ccccc2)c2ccccc2)cc1.O=C(O)c1ccc(P(c2ccccc2)c2ccccc2)cc1.[Cl][Au] [^4L2AuCl, (4COOHPh-Ph2P)2AuCl] | – | 4.42 ± 0.56 | 5.29 ± 0.2 kcal/mol | -2.02 ± 0.2 kcal/mol | 17.76 ± 0.1 cal/mol K | 3.06 | 27 µM and 27.8 µM | 3.52 | -7.31 ± 0.28 kcal/mol | 2.35 ± 0.61 | Stability of the solution (UV-visible spectra 200–700 nm) [4]: no overall changes in solution over |
| COC(=O)c1ccc(P(c2ccccc2)c2ccccc2)cc1.COC(=O)c1ccc(P(c2ccccc2)c2ccccc2)cc1.COC(=O)c1ccc(P(c2ccccc2)c2ccccc2)cc1.[Cl][Au] [^4MeL3AuCl] | 12.7 ± 2.1 | 13.4 ± 2.24 | 2.29 n. d. * kcal/mol | −4.35 n. d. * kcal/mol | 7.69 n. d. * cal/mol K | 21.2 | – | 7.63 | −6.64 n. d. * kcal/mol | 4.55 ± 1.04 | – |
| O=C(O)c1ccc(P(c2ccccc2)c2ccccc2)cc1.O=C(O)c1ccc(P(c2ccccc2)c2ccccc2)cc1.O=C(O)c1ccc(P(c2ccccc2)c2ccccc2)cc1.[Cl][Au] [^4L3AuCl, [tris(4-benzoate-diphenylphosphanyl)-gold(I)chloride]] | 4.6 ± 0.5 | 3.84 ± 0.29 | 2.19 ± 0.1 kcal/mol | -5.04 ± 0.08 kcal/mol | 7.34 ± 0.005 cal/mol K | 2 | – | 3.32 | -7.23 ± 0.12 kcal/mol | 5.05 ± 2.7 | n = Hill coefficient (DHFR from E. coli [2]; [8]): 1.73; Stability of the solution (UV-visible spectra 200–700 nm) [4]: no overall changes in solution over |
| O=C(O)c1ccccc1P(c1ccccc1)c1ccccc1.O=C(O)c1ccccc1P(c1ccccc1)c1ccccc1.O=C(O)c1ccccc1P(c1ccccc1)c1ccccc1.[Cl][Au] [^2L3AuCl, [tris(2-benzoate-diphenylphosphanyl)-gold(I)chloride]] | 21.3 ± 3.8 | 10.5 ± 1.07 | 2.86 ± 0.1 kcal/mol | -3.94 ± 0.1 kcal/mol | 9.58 ± 0.08 cal/mol K | 5.11 | – | 7.12 | -6.8 ± 0.14 kcal/mol | 7.32 ± 2.46 | n = Hill coefficient (DHFR from E. coli [2]; 10 °C): 1.41 ± 0.048; n = Hill coefficient (DHFR from E. coli [2]; [8]): 1.23 ± 0.082 |
| O=C(O)c1ccc(P(c2ccccc2)c2ccccc2)cc1 [^4L, 4-(diphenylphosphino)benzoic acid, reference compound] | – | 59.6 ± 5.7 | – | – | – | – | – | – | – | – | Ki (DHFR from E. coli [3]): No inhibition * |
| c1ccc(P(c2ccccc2)c2ccccc2)cc1 [L, PPh3, reference compound] | – | – | – | – | – | – | 6.16 ± 0.77 µM | – | – | – | – |
| O=C(O)c1ccccc1P(c1ccccc1)c1ccccc1.O=C(O)c1ccccc1P(c1ccccc1)c1ccccc1.[Cl][Au] [^2L2AuCl, (2COOHPh-Ph2P)2AuCl] | – | 10.3 ± 0.65 | – | – | – | – | 2 µM and 2.07 µM | – | – | 4.73 ± 0.68 | Stability of the solution (UV-visible spectra 200–700 nm) [4]: no overall changes in solution over |
| CN(Cc1cnc2nc(N)nc(N)c2n1)c1ccc(C(=O)N[C@@H](CCC(=O)O)C(=O)O)cc1 [Methotrexate] | – | – | – | – | – | – | – | – | – | – | stronger bond to DHFR than DHF (factor) (DHFR): 10^3 |
| [Cl][Au].c1ccc(P(c2ccccc2)c2ccccc2)cc1 [LAuCl, PPh3AuCl] | – | – | – | – | – | – | 1.21 ± 0.2 µM | – | – | – | – |
| O=C(O)c1ccccc1P(c1ccccc1)c1ccccc1 [^2L, 2-(diphenylphosphine) benzoic acid, reference compound] | – | – | – | – | – | – | – | – | – | – | Ki (DHFR from E. coli [3]): No inhibition * |
| O=C(O)c1ccccc1 [Benzoic acid, reference compound] | – | ~4000 | – | – | – | – | – | – | – | – | – |

Source: article PMC6479694, “Studies on the Interaction between Poly-Phosphane Gold(I) Complexes and Dihydrofolate Reductase: An Interplay with Nicotinamide Adenine Dinucleotide Cofactor” (International Journal of Molecular Sciences, 2019)
